Data reported in PubChem BioAssay AID248 (DTP/NCI, 2004).
Values joined by “and” are separate entries in the source; they are usually repeats but may differ in a detail not shown here. Equal entries are not always repeated. Toxic doses and inconclusive results are not listed. No stated cut-off is given here; in the data, active means T/C of 150% or more; inactive means T/C below 125%.

Test system: L1210 leukemia ip in BDF1 mice, survival T/C
Assay: NCI In Vivo Anticancer Drug Screen. Data for tumor model L1210 Leukemia (intraperitoneal) in B6D2F1 (BDF1) mice
Conditions: endpoint: mean survival time, higher = longer survival
In short: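 Value reflects the ratio of survival in compound-treated mice to survival in vehicle-treated controls, with both groups carrying the same transplanted tumor.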

[1] = dose: 100.0 mg/kg/injection, schedule: Q01DX001 (ip), vehicle: saline
[2] = dose: 100.0 mg/kg/injection, schedule: Q04DX002 (ip), vehicle: saline with Tween-80
[3] = dose: 200.0 mg/kg/injection, schedule: Q01DX001 (ip), vehicle: saline
[4] = dose: 400.0 mg/kg/injection, schedule: Q01DX001 (ip), vehicle: saline
[5] = dose: 100.0 mg/kg/injection, schedule: Q01DX009 (ip), vehicle: saline with Tween-80
[6] = dose: 200.0 mg/kg/injection, schedule: Q01DX009 (ip), vehicle: saline with Tween-80
[7] = dose: 400.0 mg/kg/injection, schedule: Q01DX009 (ip), vehicle: saline with Tween-80
[8] = dose: 100.0 mg/kg/injection, schedule: Q01DX009 (ip), vehicle: Klucel (hydroxypropylcellulose) (HPC)
[9] = dose: 100.0 mg/kg/injection, schedule: Q04DX003 (ip), vehicle: Klucel (hydroxypropylcellulose) (HPC)
[10] = dose: 200.0 mg/kg/injection, schedule: Q01DX009 (ip), vehicle: Klucel (hydroxypropylcellulose) (HPC)
[11] = dose: 200.0 mg/kg/injection, schedule: Q04DX003 (ip), vehicle: Klucel (hydroxypropylcellulose) (HPC)
[12] = dose: 400.0 mg/kg/injection, schedule: Q01DX009 (ip), vehicle: Klucel (hydroxypropylcellulose) (HPC)
[13] = dose: 400.0 mg/kg/injection, schedule: Q04DX003 (ip), vehicle: Klucel (hydroxypropylcellulose) (HPC)
[14] = dose: 100.0 mg/kg/injection, schedule: Q04DX003 (ip), vehicle: saline with Tween-80
[15] = dose: 200.0 mg/kg/injection, schedule: Q04DX003 (ip), vehicle: saline with Tween-80
[16] = dose: 100.0 mg/kg/injection, schedule: Q04DX003 (ip), vehicle: saline
[17] = dose: 200.0 mg/kg/injection, schedule: Q04DX003 (ip), vehicle: saline
[18] = dose: 400.0 mg/kg/injection, schedule: Q04DX003 (ip), vehicle: saline with Tween-80

Measured: T/C

CCCCC(CCCC(=O)O)C(=O)O (stereo unspecified)
inactive: dose: 100.0 mg/kg/injection, schedule: Q01DX001 (ip), vehicle: carboxymethylcellulose (CMC) 93 % of control | dose: 200.0 mg/kg/injection, schedule: Q01DX001 (ip), vehicle: carboxymethylcellulose (CMC) 96 % of control | dose: 400.0 mg/kg/injection, schedule: Q01DX001 (ip), vehicle: carboxymethylcellulose (CMC) 98 % of control

Clc1ccc(CN2CCCN(C3CCCCC3)C2C2CCC=CO2)cc1 (stereo unspecified)
inactive: [1] 96 % of control

CCOC(=O)C[P+](c1ccc(C)cc1)(c1ccc(C)cc1)c1ccc(C)cc1
inactive: dose: 15.0 mg/kg/injection, schedule: Q01DX001 (ip), vehicle: carboxymethylcellulose (CMC) 86 % of control

COc1cc(C2=N/C(=C\c3cccc([N+](=O)[O-])c3)C(=O)O2)cc(OC)c1OC
inactive: dose: 25.0 mg/kg/injection, schedule: Q04DX002 (ip), vehicle: saline with Tween-80 87 % of control | dose: 50.0 mg/kg/injection, schedule: Q04DX002 (ip), vehicle: saline with Tween-80 90 % of control | [2] 93 % of control and 89 % of control

Clc1ccc2scc3c4ccccc4nc-3c2c1
inactive: dose: 100.0 mg/kg/injection, schedule: Q04DX003 (ip), vehicle: acetone 102 % of control

CCC1(C)CC(=O)N(C/C=C(\C)CCC(=O)O)C(=O)C1
inactive: dose: 100.0 mg/kg/injection, schedule: Q01DX009 (ip), vehicle: other 103 % of control | dose: 100.0 mg/kg/injection, schedule: Q04DX003 (ip), vehicle: other 89 % of control | dose: 200.0 mg/kg/injection, schedule: Q01DX009 (ip), vehicle: other 101 % of control | dose: 200.0 mg/kg/injection, schedule: Q04DX003 (ip), vehicle: other 100 % of control | dose: 400.0 mg/kg/injection, schedule: Q01DX009 (ip), vehicle: other 93 % of control | dose: 400.0 mg/kg/injection, schedule: Q04DX003 (ip), vehicle: other 96 % of control

O=C1Nc2ccccc2C12CNCS2 (stereo unspecified)
inactive: dose: 75.0 mg/kg/injection, schedule: Q01DX001 (ip), vehicle: saline 104 % of control | dose: 150.0 mg/kg/injection, schedule: Q01DX001 (ip), vehicle: saline 98 % of control | dose: 300.0 mg/kg/injection, schedule: Q01DX001 (ip), vehicle: saline 95 % of control

O=[N+]([O-])c1ccc(OCCCCOc2ccccc2)cc1
inactive: dose: 100.0 mg/kg/injection, schedule: Q01DX009 (ip), vehicle: saline 110 % of control | dose: 200.0 mg/kg/injection, schedule: Q01DX009 (ip), vehicle: saline 96 % of control | dose: 400.0 mg/kg/injection, schedule: Q01DX009 (ip), vehicle: saline 92 % of control

COc1ccc(C(=O)/C(C)=N/O)cc1
inactive: [1] 103 % of control | [3] 103 % of control | [4] 101 % of control

CC(C)C(Br)C(=O)NCC(=O)NCC(=O)O (stereo unspecified)
inactive: [5] 93 % of control | [6] 94 % of control | [7] 92 % of control

O=C(Nc1ccccc1)Oc1ccc(Cl)cc1
inactive: [8] 97 % of control | [9] 107 % of control | [10] 102 % of control | [11] 96 % of control | [12] 103 % of control | [13] 113 % of control

CCCC(=O)NNC(=O)CCC
inactive: dose: 100.0 mg/kg/injection, schedule: Q04DX003 (ip), vehicle: gum acacia 106 % of control | dose: 200.0 mg/kg/injection, schedule: Q04DX003 (ip), vehicle: gum acacia 107 % of control | dose: 400.0 mg/kg/injection, schedule: Q04DX003 (ip), vehicle: gum acacia 120 % of control

COc1ccc(C(C)(C#N)Nc2ccccc2)cc1 (stereo unspecified)
inactive: [14] 98 % of control | [15] 96 % of control

C(#[C][Sb]([C]#Cc1ccccc1)[C]#Cc1ccccc1)c1ccccc1
inactive: [16] 98 % of control | [17] 106 % of control | dose: 400.0 mg/kg/injection, schedule: Q04DX003 (ip), vehicle: saline 102 % of control

NNc1ccc(C(=O)O)cc1
inactive: [8] 100 % of control | [5] 98 % of control and 101 % of control | [9] 102 % of control | [14] 100 % of control and 101 % of control | [10] 96 % of control | [6] 93 % of control and 95 % of control | [11] 91 % of control | [15] 96 % of control and 108 % of control | [12] 100 % of control | [7] 117 % of control and 91 % of control | [13] 96 % of control | [18] 94 % of control and 96 % of control

CC(=O)OC1(N=NC(C)(C)C)C(C)(C)C(=O)C1(C)C
inactive: [9] 91 % of control | [11] 86 % of control | [13] 91 % of control

O=S(=O)(Oc1ccc(Br)cc1)C1CC1c1ccccc1 (stereo unspecified)
inactive: [1] 106 % of control | [3] 98 % of control | [4] 103 % of control

CCOC(=O)c1c(N)sc(C)c1C
inactive: [9] 102 % of control | [11] 94 % of control | [13] 97 % of control

O=C(O)c1ccccc1NC(c1ccccc1)c1ccc2cccnc2c1O (stereo unspecified)
inactive: [1] 89 % of control | [3] 89 % of control

O=C(NCCCl)Nc1ccc2c3c(cccc13)CC2
inactive: [8] 87 % of control | [11] 95 % of control

O=C(O)Cc1cccc(S(=O)(=O)F)c1
inactive: dose: 25.0 mg/kg/injection, schedule: Q04DX003 (ip), vehicle: saline with Tween-80 96 % of control | dose: 50.0 mg/kg/injection, schedule: Q01DX009 (ip), vehicle: saline with Tween-80 109 % of control | dose: 50.0 mg/kg/injection, schedule: Q04DX003 (ip), vehicle: saline with Tween-80 99 % of control | dose: 100.0 mg/kg/injection, schedule: Q01DX001 (ip), vehicle: saline with Tween-80 96 % of control | [5] 111 % of control | [2] 91 % of control | [14] 99 % of control and 100 % of control | dose: 200.0 mg/kg/injection, schedule: Q01DX001 (ip), vehicle: saline with Tween-80 92 % of control | [6] 104 % of control | dose: 200.0 mg/kg/injection, schedule: Q04DX002 (ip), vehicle: saline with Tween-80 86 % of control | [15] 105 % of control | dose: 400.0 mg/kg/injection, schedule: Q01DX001 (ip), vehicle: saline with Tween-80 100 % of control

CN(C)CCOC(=O)c1cc(CCBr)cc(CCBr)c1
inactive: dose: 2.5 mg/kg/injection, schedule: Q01DX009 (ip), vehicle: saline 92 % of control | dose: 5.0 mg/kg/injection, schedule: Q01DX009 (ip), vehicle: saline 97 % of control | dose: 10.0 mg/kg/injection, schedule: Q01DX009 (ip), vehicle: Klucel (hydroxypropylcellulose) (HPC) 95 % of control | dose: 10.0 mg/kg/injection, schedule: Q01DX009 (ip), vehicle: saline 94 % of control

COc1ccc2c(c1OC)C(=O)O[C@@H]2[C@H]1c2c(cc3c(c2OC)OCO3)CCN1C
inactive: dose: 31.3 mg/kg/injection, schedule: Q01DX009 (ip), vehicle: saline 95 % of control and 100 % of control (2×) | dose: 50.0 mg/kg/injection, schedule: Q01DX001 (ip), vehicle: saline 96 % of control | dose: 62.5 mg/kg/injection, schedule: Q01DX009 (ip), vehicle: saline 94 % of control and 100 % of control (2×) | [1] 102 % of control | dose: 125.0 mg/kg/injection, schedule: Q01DX009 (ip), vehicle: saline 96 % of control and 97 % of control and 91 % of control | [3] 107 % of control | dose: 250.0 mg/kg/injection, schedule: Q01DX009 (ip), vehicle: saline 102 % of control and 104 % of control and 91 % of control | [4] 111 % of control

CNC(=O)n1cncn1
inactive: [1] 95 % of control | [16] 101 % of control | [3] 93 % of control | [17] 95 % of control | [4] 95 % of control

C=CC(=O)Nc1cccc(OC(=O)NC(C)(C)C)c1
inactive: [14] 101 % of control | [15] 92 % of control | [18] 87 % of control

Cc1cccc(Cl)c1NC(=O)C(C)N1CCCC1 (stereo unspecified)
inactive: dose: 12.5 mg/kg/injection, schedule: Q01DX009 (ip), vehicle: saline 101 % of control | dose: 25.0 mg/kg/injection, schedule: Q01DX009 (ip), vehicle: saline 98 % of control | dose: 50.0 mg/kg/injection, schedule: Q01DX009 (ip), vehicle: saline 93 % of control
